From US20130324576A1, “THERAPEUTIC COMPOUNDS” (Takeda Pharmaceutical Company Limited, priority 2012, published 2013)

Target: T1, human PKR1 receptors (Homo sapiens, UniProt Q8TCW9)
T1 construct: expressed in transfected cells; host or cells: RBL2H3 cells (rat basophilic leukaemia line) expressing human PKR1
Assay: PKR1 antagonist assay: block of PK1-mediated intracellular calcium release (FLIPR Tetra, Calcium 5 dye)
Format: cell-based
Details: RBL2H3 cells expressing human PKR1; 10 min pre-incubation, stimulation with PK1 at EC80; calcium fluorescence
Procedure: Prokineticin receptor 1 (PKR1) antagonists may be functionally assessed by measurement of change in intracellular calcium levels induced by Gq mediated increase in inositol triphosphate (IP3) levels. The ability of a compound to block the intracellular release of calcium mediated by PK1 in RBL2H3 cells expressing human PKR1 receptors is determined as a measure of the compound's antagonist activity in vitro.
Approximately 10,000 cells per assay well are seeded in normal culture medium in a 384 well plate (Corning). Twenty-four hours after seeding, the cells are loaded with a calcium sensitive fluorescent dye by replacing the culture medium with assay buffer (1× Hanks buffered saline, 25 mM HEPES, 0.1% w/v fatty acid free BSA (bovine serum albumin), pH 7.4) containing 1 mM probenecid and 1× Calcium 5 Reagent (Molecular Devices). Cells are incubated at 37° C. for 1 hour to allow for dye uptake.
To test for antagonist activity, test compounds at a final concentration range between 0.32 nM-10 μM (diluted in assay buffer) are added to the assay wells and allowed to incubate for 10 minutes prior to stimulation with PK1. After incubation with test compounds the assay plate is placed in a FLIPR Tetra (Molecular Devices) and PK1 (diluted in assay buffer) is added at the determined EC80 concentration (final). Ligand-dependent changes in intracellular calcium levels are determined by measuring changes in fluorescence of the dye at […] following excitation at 485 nm.

T1 sequence (Q8TCW9 whole entry): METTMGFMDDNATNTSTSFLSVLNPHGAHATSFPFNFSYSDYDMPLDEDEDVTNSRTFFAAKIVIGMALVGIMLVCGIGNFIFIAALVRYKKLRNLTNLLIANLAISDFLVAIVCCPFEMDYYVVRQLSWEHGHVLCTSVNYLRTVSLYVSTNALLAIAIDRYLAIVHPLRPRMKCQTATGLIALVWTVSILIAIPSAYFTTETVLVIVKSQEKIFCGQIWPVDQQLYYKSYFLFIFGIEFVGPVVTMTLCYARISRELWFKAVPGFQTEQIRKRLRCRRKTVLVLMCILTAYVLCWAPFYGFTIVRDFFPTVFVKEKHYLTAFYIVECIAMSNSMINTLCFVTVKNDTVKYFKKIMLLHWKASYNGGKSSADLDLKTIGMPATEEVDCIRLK

## COC(c1ccc(Cl)cc1)C1CCN(S(=O)(=O)c2c(C)n[nH]c2C)CC1 (single isomer, unassigned) [Example 98, 4-((4-Chlorophenyl)(methoxy)methyl)-1-((3,5-dimethyl-1H-pyrazol-4-yl)sulfonyl)piperidine]
  IC50: 160 nM

## Cc1n[nH]c(C)c1S(=O)(=O)N1CCC(Oc2ccccc2F)CC1 [Example 76, 1-((3,5-Dimethyl-1H-pyrazol-4-yl)sulfonyl)-4-(2-fluorophenoxy)piperidine]
  IC50: 3730 nM

## CCn1nc(C)c(S(=O)(=O)N2CCC(Oc3ccc(C)cc3)CC2)c1C [Example 9, 1-[(1-Ethyl-3,5-dimethyl-1H-pyrazol-4-yl)sulfonyl]-4-(4-methylphenoxy)piperidine]
  IC50: 2300 nM

## Cc1nn(C)c(C)c1S(=O)(=O)N1CCC(Oc2ccc(C#N)cc2)CC1 [Example 7, 4-({1-[(1,3,5-Trimethyl-1H-pyrazol-4-yl)sulfonyl]piperidin-4-yl}oxy)benzonitrile]
  IC50: 7300 nM

## Cc1nn(C)c(C)c1S(=O)(=O)N1CCC(Oc2ccc(Cl)cn2)CC1 [Example 48, 5-Chloro-2-((1-((1,3,5-trimethyl-1H-pyrazol-4-yl)sulfonyl)piperidin-4-yl)oxy)pyridine]
  IC50: 3800 nM

## Cc1n[nH]c(C)c1S(=O)(=O)N1CCC(O)(Cc2ccc(Cl)c(Cl)c2)CC1 [Example 70, 4-(3,4-Dichlorobenzyl)-1-((3,5-dimethyl-1H-pyrazol-4-yl)sulfonyl)piperidin-4-ol]
  IC50: 8620 nM

## COc1ccc(OC2CCN(S(=O)(=O)c3c(C)nn(C)c3C)CC2)cc1F [Example 43, 4-(3-Fluoro-4-methoxyphenoxy)-1-(trimethyl-1H-pyrazole-4-sulfonyl)piperidine]
  IC50: 6300 nM

## COc1cc(Cl)ccc1CC1(O)CCN(S(=O)(=O)c2c(C)nn(C)c2C)CC1 [Example 88, 4-(4-Chloro-2-methoxybenzyl)-1-((1,3,5-trimethyl-1H-pyrazol-4-yl)sulfonyl)piperidin-4-ol]
  IC50: 200 nM

## Cc1nn(C)c(C)c1S(=O)(=O)N1CCC(Oc2ccc(Cl)cc2)CC1C (centres unmarked) [Example 24, 4-(4-Chlorophenoxy)-2-methyl-1-[(1,3,5-trimethyl-1H-pyrazol-4-yl)sulfonyl]piperidine]
  IC50: 1500 nM

## COc1cc(Cl)ccc1CC1(OC)CCN(S(=O)(=O)c2c(C)n[nH]c2C)CC1 [Example 86, 4-(4-Chloro-2-methoxybenzyl)-1-((3,5-dimethyl-1H-pyrazol-4-yl)sulfonyl)-4-methoxypiperidine]
  IC50: 4600 nM

## COc1ccc(OC2CCN(S(=O)(=O)c3c(C)nn(C)c3C)CC2)cc1 [Example 18, 4-(4-Methoxyphenoxy)-1-[(1,3,5-trimethyl-1H-pyrazol-4-yl)sulfonyl]piperidine]
  IC50: 7000 nM

## Cc1nn(C)c(C)c1S(=O)(=O)N1CCC(Oc2ncc(Cl)cc2F)CC1 [Example 77, 5-Chloro-3-fluoro-2-((1-((1,3,5-trimethyl-1H-pyrazol-4-yl)sulfonyl)piperidin-4-yl)oxy)pyridine]
  IC50: 3190 nM

## Cc1n[nH]c(C)c1S(=O)(=O)N1CCC(Oc2ccc(Cl)cc2C(F)(F)F)CC1 [Example 40, 4-[4-Chloro-2-(trifluoromethyl)phenoxy]-1-(3,5-dimethyl-1H-pyrazole-4-sulfonyl)piperidine]
  IC50: 210 nM

## COc1ccc(OC2CCN(S(=O)(=O)c3c(C)n[nH]c3C)CC2)cc1F [Example 41, 1-(3,5-Dimethyl-1H-pyrazole-4-sulfonyl)-4-(3-fluoro-4-methoxyphenoxy)piperidine]
  IC50: 5900 nM

## Cc1n[nH]c(C)c1S(=O)(=O)N1CCC(Oc2ccc(Cl)cc2F)CC1 [Example 35, 4-(4-Chloro-2-fluorophenoxy)-1-(3,5-dimethyl-1H-pyrazole-4-sulfonyl)piperidine]
  IC50: 1100 nM

## Cc1nn(C)c(Cl)c1S(=O)(=O)N1CCC(Oc2ccc(Cl)cc2)CC1 [Example 15, 1-[(5-Chloro-1,3-dimethyl-1H-pyrazol-4-yl)sulfonyl]-4-(4-chlorophenoxy)piperidine]
  IC50: 2900 nM

## Cc1nn(C)c(C)c1S(=O)(=O)N1CCC(O)(Cc2ccc(Cl)cc2Cl)CC1 [Example 59, 4-(2,4-Dichlorobenzyl)-1-((1,3,5-trimethyl-1H-pyrazol-4-yl)sulfonyl)piperidin-4-ol]
  IC50: 2400 nM

## COc1cc(Cl)cnc1OC1CCN(S(=O)(=O)c2c(C)n[nH]c2C)CC1 [Example 85, 5-Chloro-2-((1-((3,5-dimethyl-1H-pyrazol-4-yl)sulfonyl)piperidin-4-yl)oxy)-3-methoxypyridine]
  IC50: 1230 nM

## Cc1n[nH]c(C)c1S(=O)(=O)N1CCC(Oc2ccc(OC(F)(F)F)cc2)CC1 [Example 32, 1-[(3,5-Dimethyl-1H-pyrazol-4-yl)sulfonyl]-4-[4-(trifluoromethoxy)phenoxy]piperidine]
  IC50: 3400 nM

## Cc1n[nH]c(C)c1S(=O)(=O)N1CCC(C#N)(Cc2ccc(Cl)cc2)CC1 [Example 64, 4-(4-Chlorobenzyl)-1-((3,5-dimethyl-1H-pyrazol-4-yl)sulfonyl)piperidine-4-carbonitrile]
  IC50: 890 nM

## Cc1nn(C)c(C)c1S(=O)(=O)N1CCC(N(C)c2ccc(Cl)c(Cl)c2)CC1 [Example 54]
  IC50: 5200 nM

## Cc1ccc(OC2CCN(S(=O)(=O)c3c(C)nn(C)c3C)CC2)cc1 [Example 4, 4-(4-Methylphenoxy)-1-[(1,3,5-trimethyl-1H-pyrazol-4-yl)sulfonyl]piperidine]
  IC50: 820 nM

## Cc1n[nH]c(C)c1S(=O)(=O)N1CCC(C(F)c2ccc(Cl)cc2)CC1 (single isomer, unassigned) [Example 106, 4-((4-Chlorophenyl)fluoromethyl)-1-((3,5-dimethyl-1H-pyrazol-4-yl)sulfonyl)piperidine]
  IC50: 4000 nM

## Cc1n[nH]c(C)c1S(=O)(=O)N1CCC(Nc2ccc(Cl)cc2)CC1 [Example 103, N-(4-Chlorophenyl)-1-((3,5-dimethyl-1H-pyrazol-4-yl)sulfonyl)piperidin-4-amine]
  IC50: 1760 nM

## Cc1nn(C)c(C)c1S(=O)(=O)N1CCC(Oc2ccc(C(F)(F)F)cc2)CC1 [Example 12, 4-[4-(Trifluoromethyl)phenoxy]-1-[(1,3,5-trimethyl-1H-pyrazol-4-yl)sulfonyl]piperidine]
  IC50: 4700 nM

## Cc1cccc(C)c1OC1CCN(S(=O)(=O)c2c(C)n[nH]c2C)CC1 [Example 38, 1-(3,5-Dimethyl-1H-pyrazole-4-sulfonyl)-4-(2,6-dimethylphenoxy)piperidine]
  IC50: 3200 nM

## COc1c(F)cc(OC2CCN(S(=O)(=O)c3c(C)n[nH]c3C)CC2)cc1F [Example 42, 4-(3,5-Difluoro-4-methoxyphenoxy)-1-(3,5-dimethyl-1H-pyrazole-4-sulfonyl)piperidine]
  IC50: 5900 nM

## COc1cc(Cl)ccc1CC1CCN(S(=O)(=O)c2c(C)nn(C)c2C)CC1 [Example 79, 4-(4-Chloro-2-methoxybenzyl)-1-((1,3,5-trimethyl-1H-pyrazol-4-yl)sulfonyl)piperidine]
  IC50: 50 nM

## COC(c1ccccc1)C1CCN(S(=O)(=O)c2c(C)n[nH]c2C)CC1 (centres unmarked) [Example 110, 1-((3,5-Dimethyl-1H-pyrazol-4-yl)sulfonyl)-4-(methoxy(phenyl)methyl)piperidine]
  IC50: 3010 nM

## Cc1n[nH]c(C)c1S(=O)(=O)N1CCC(C(C#N)c2ccc(Cl)cc2)CC1 (centres unmarked) [Example 93, 2-(4-Chlorophenyl)-2-(1-((3,5-dimethyl-1H-pyrazol-4-yl)sulfonyl)piperidin-4-yl)acetonitrile]
  IC50: 610 nM

## COC1(Cc2ccc(Cl)cc2)CCN(S(=O)(=O)c2c(C)nn(C)c2C)CC1 [Example 58, 4-(4-Chlorobenzyl)-4-methoxy-1-((1,3,5-trimethyl-1H-pyrazol-4-yl)sulfonyl)piperidine]
  IC50: 2400 nM

## CCOC(=O)C1(Cc2ccc(Br)cc2)CCN(S(=O)(=O)c2c(C)n[nH]c2C)CC1 [Example 62, Ethyl 4-(4-bromobenzyl)-1-((3,5-dimethyl-1H-pyrazol-4-yl)sulfonyl)piperidine-4-carboxylate]
  IC50: 680 nM
